# Source: ChEMBL document CHEMBL4346666, “Synthesis, mitochondrial localization of fluorescent derivatives of cinnamamide as anticancer agents” (Eur J Med Chem, 2019)
# pIC50: −log10 of the molar value. Activity calls are given as the source filed them. No cut-off for these calls is given here.
# Assays:
# [1] = tested on: HL-60; experiment: Induction of cell cycle arrest in human HL60 cells assessed as accumulation at G0/G1 phase at 15 uM after 48 hrs by propidium iodide staining based flow cytometry (reference value: 83.52%); type: functional
# [2] = tested on: HL-60; experiment: Induction of cell cycle arrest in human HL60 cells assessed as accumulation at sub G0/G1 phase at 20 uM after 48 hrs by propidium iodide staining based flow cytometry (reference value: 0%); type: functional
# [3] = Drug localization in mitochondria of human HepG2 cells at 1 uM measured after 30 mins by […] dye-based confocal microscopy; type: ADME; details: hepg2, 0.5 h
# [4] = tested on: HL-60; experiment: Induction of mitochondrial dysfunction in human HL60 cells assessed as decrease in mitochondrial membrane potential at 15 uM measured after 48 hrs by TMRE probe-based flow cytometry relative to control; type: functional
# [5] = tested on: HL-60; experiment: Induction of cell cycle arrest in human HL60 cells assessed as accumulation at G2/M phase at 10 uM after 48 hrs by propidium iodide staining based flow cytometry (reference value: 1.60%); type: functional
# [6] = tested on: HL-60; experiment: Induction of cell cycle arrest in human HL60 cells assessed as accumulation at G2/M phase at 15 uM after 48 hrs by propidium iodide staining based flow cytometry (reference value: 1.60%); type: functional
# [7] = Binding affinity to cysteamine residue by ESI-MS analysis
# [8] = Drug uptake in human HL60 cells by flow cytometry; type: ADME, cell-based; details: hl-60
# [9] = Binding affinity to cysteamine residue assessed as hypochromic effect at 20 uM incubated for up to 1 hr by UV-Vis absorption spectrophotometric method
# [10] = tested on: HL-60; experiment: Induction of mitochondrial dysfunction in human HL60 cells assessed as decrease in mitochondrial membrane potential at 20 uM measured after 48 hrs by TMRE probe-based flow cytometry relative to control; type: functional
# [11] = Drug uptake in human HL60 cells at 20 uM measured after 1.5 hrs by spectrofluorimetric analysis relative to PBMC cells; type: ADME, cell-based; details: hl-60, 1.5 h
# [12] = tested on: HL-60; experiment: Induction of apoptosis in human HL60 cells assessed as late apoptotic cells or necrotic cells at 10 uM after 48 hrs by Annexin-V-FITC/propidium iodide staining based flow cytometry (reference value: 0.39%); type: functional
# [13] = tested on: HL-60; experiment: Induction of cell cycle arrest in human HL60 cells assessed as accumulation at G0/G1 phase at 20 uM after 48 hrs by propidium iodide staining based flow cytometry (reference value: 83.52%); type: functional
# [14] = Drug uptake in human HL60 cells at 20 uM measured after 3 hrs by spectrofluorimetric analysis relative to PBMC cells; type: ADME, cell-based; details: hl-60, 3 h
# [15] = tested on: HL-60; experiment: Cell cycle arrest in human HL60 cells assessed as decrease in accumulation at G2/M phase after 48 hrs by propidium iodide staining based flow cytometry; type: functional
# [16] = tested on: HL-60; experiment: Cell cycle arrest in human HL60 cells assessed as decrease in accumulation at S phase after 48 hrs by propidium iodide staining based flow cytometry; type: functional
# [17] = tested on: HL-60; experiment: Induction of ROS generation in human HL60 cells after 6 hrs by DCFH-DA probe based flow cytometry analysis; type: functional, cell-based
# [18] = tested on: HL-60; experiment: Induction of cell cycle arrest in human HL60 cells assessed as accumulation at sub G0/G1 phase at 15 uM after 48 hrs by propidium iodide staining based flow cytometry (reference value: 0%)l; type: functional
# [19] = tested on: HL-60; experiment: Cytotoxicity against human HL60 cells assessed as cell viability at 20 uM measured after 48 hrs by MTT assay relative to control; type: functional; details: HL-60, 48 h, read-out: Activity
# [20] = tested on: HL-60; experiment: Induction of cell cycle arrest in human HL60 cells assessed as accumulation at S-phase at 20 uM after 48 hrs by propidium iodide staining-based flow cytometry (reference value: 14.88%); type: functional
# [21] = tested on: PBMC; experiment: Cytotoxicity against human PBMC assessed as reduction in cell viability measured after 48 hrs by MTT assay; type: cell-based
# [22] = Drug uptake in human HL60 cells at 20 uM measured after 0.5 hrs by spectrofluorimetric analysis relative to PBMC cells; type: ADME, cell-based; details: hl-60, 0.5 h
# [23] = Binding affinity to cysteamine residue at 1:1 to 5:1 stoichiometric ratio of cysteamine to compound incubated for up to 1 hr by UV-Vis absorption spectrophotometric method
# [24] = tested on: HL-60; experiment: Induction of apoptosis in human HL60 cells assessed as increase in late apoptotic or necrotic cells after 48 hrs by Annexin-V-FITC/propidium iodide staining based flow cytometry relative to control; type: functional, cell-based
# [25] = tested on: MCF7; experiment: Cytotoxicity against human MCF7 cells assessed as cell viability at 20 uM measured after 48 hrs by MTT assay relative to control; type: functional; details: MCF7, 48 h, read-out: Activity
# [26] = tested on: HL-60; experiment: Induction of apoptosis in human HL60 cells assessed as late apoptotic cells or necrotic cells at 15 uM after 48 hrs by Annexin-V-FITC/propidium iodide staining based flow cytometry (reference value: 0.39%); type: functional
# [27] = tested on: HL-60; experiment: Induction of apoptosis in human HL60 cells assessed as early apoptotic cells at 20 uM after 48 hrs by Annexin-V-FITC/propidium iodide staining based flow cytometry (reference value: 0.71%); type: functional
# [28] = tested on: HL-60; experiment: Cytotoxicity against human HL60 cells assessed as reduction in cell viability measured after 48 hrs by MTT assay; type: functional, cell-based; details: HL-60, 48 h
# [29] = tested on: HL-60; experiment: Induction of cell cycle arrest in human HL60 cells assessed as accumulation at G0/G1 phase at 10 uM after 48 hrs by propidium iodide staining based flow cytometry (reference value: 83.52%); type: functional
# [30] = tested on: HL-60; experiment: Induction of cell cycle arrest in human HL60 cells assessed as accumulation at sub G0/G1 phase at 10 uM after 48 hrs by propidium iodide staining based flow cytometry (reference value: 0%); type: functional
# [31] = tested on: HeLa; experiment: Cytotoxicity against human HeLa cells assessed as cell viability at 20 uM measured after 48 hrs by MTT assay relative to control; type: functional; details: read-out: Activity
# [32] = tested on: HL-60; experiment: Induction of apoptosis in human HL60 cells assessed as late apoptotic cells or necrotic cells at 20 uM after 48 hrs by Annexin-V-FITC/propidium iodide staining based flow cytometry (reference value: 0.39%); type: functional
# [33] = tested on: HL-60; experiment: Induction of mitochondrial dysfunction in human HL60 cells assessed as decrease in mitochondrial membrane potential at 10 uM measured after 48 hrs by TMRE probe-based flow cytometry relative to control; type: functional
# [34] = tested on: HL-60; experiment: Induction of cell cycle arrest in human HL60 cells assessed as accumulation at S phase at 15 uM after 48 hrs by propidium iodide staining based flow cytometry (reference value: 14.88%); type: functional
# [35] = tested on: HepG2; experiment: Cytotoxicity against human HepG2 cells assessed as cell viability at 20 uM measured after 48 hrs by MTT assay relative to control; type: functional; details: HepG2, 48 h, read-out: Activity
# [36] = tested on: HL-60; experiment: Induction of cell cycle arrest in human HL60 cells assessed as accumulation at G2/M phase at 20 uM after 48 hrs by propidium iodide staining based flow cytometry (reference value: 1.60%); type: functional
# [37] = tested on: HL-60; experiment: Induction of cell cycle arrest in human HL60 cells assessed as accumulation at S-phase at 10 uM after 48 hrs by propidium iodide staining based flow cytometry (reference value: 14.88%); type: functional
# [38] = tested on: HL-60; experiment: Cytotoxicity against human HL60 cells assessed as reduction in cell viability measured after 48 hrs in presence of ROS scavenger N-acetyl-L-cysteine and VE by MTT assay; type: functional, cell-based
# [39] = Drug localization in mitochondria of human HL60 cells at 1 uM measured after 30 mins by […] dye-based confocal microscopy; type: ADME; details: hl-60, 0.5 h
# [40] = tested on: HL-60; experiment: Induction of apoptosis in human HL60 cells assessed as early apoptotic cells at 15 uM after 48 hrs by Annexin-V-FITC/propidium iodide staining based flow cytometry (reference value: 0.71%); type: functional
# [41] = tested on: HL-60; experiment: Induction of apoptosis in human HL60 cells assessed as early apoptotic cells at 10 uM after 48 hrs by Annexin-V-FITC/propidium iodide staining based flow cytometry (reference value: 0.71%); type: functional
smiles,measurement,setting,value
CCN(CC)c1ccc2cc(C(=O)NCCNC(=O)/C(=C/c3cc(OC)c(OC)c(OC)c3)c3ccc(OC)c(OC)c3)c(=O)oc2c1,Activity,[1],24.15%
same,Activity,[2],21.44%
same,Drug uptake,[3],Active
same,fold change (FC),[4],0.46
same,Activity,[5],14.35%
same,Activity,[6],40.42%
same,Activity,[7],Active
same,Drug uptake,[8],Tde and Dose-dependent effect
same,Activity,[9],Active
same,fold change (FC),[10],0.29
same,fold change (FC),[11],4.5
same,Activity,[12],16.3%
same,Activity,[13],2.69%
same,fold change (FC),[14],8.9
same,Activity,[15],Dose-dependent effect
same,Activity,[16],Dose-dependent effect
same,Activity,[17],Dose-dependent effect
same,Activity,[18],24.1%
same,viability at 20 µM,[19],25.8%
same,Activity,[20],55.59%
same,pIC50,[21],< 4.30
same,fold change (FC),[22],4.2
same,Activity,[23],Active
same,Activity,[24],Dose-dependent effect
same,viability at 20 µM,[25],66.5%
same,Activity,[26],38%
same,Activity,[27],3.75%
same,pIC50,[28],5.04
same,Activity,[29],65.71%
same,Activity,[30],12.84%
same,viability at 20 µM,[31],53.8%
same,Activity,[32],70.2%
same,fold change (FC),[33],0.76
same,Activity,[34],35.43%
same,viability at 20 µM,[35],56.4%
same,Activity,[36],41.72%
same,Activity,[37],19.94%
same,Activity,[38],inactive
same,Drug uptake,[39],Active
same,Activity,[40],6.06%
same,Activity,[41],2.15%
